Measured values reported in patent US8629154B2, “Substituted cycloalcano[e and d] pyrazolo [1,5-a]pyrimidines/antagonists of serotonin 5-HT6 receptors and methods for production and the use thereof” (priority 2008, dated 2014).

Tests used:
5-HT6 receptor [1] = molecular target: T1, 5-HT6 receptor (Homo sapiens (Human), UniProt P50406); experiment: Functional assay: inhibition of serotonin-induced intracellular cAMP (LANCE cAMP) in HEK 293 cells expressing 5-HT6 receptor; type: cell-based; settings: read-out: IC50 of serotonin 5-HT6 receptor inhibition in the setting of functional assay
Protocol: Determination of antagonistic activity of compounds of general formulas 1 and 2 towards 5-HT6 receptors. Compounds of general formulas 1 and 2 were tested for their ability to prevent 5-HT6 receptors activation by serotonin. HEK 293 cells (cells of human embryo's kidney) with artificially expressed 5-HT6 receptor, activation of which by serotonin leads to increasing the concentration of intracellular cAMP were used. The content of intracellular cAMP was determined using reagent kit LANCE cAMP (PerkinElmer) according to the method described by the manufacturer of the kit [http://las.perkinelmer.com/content/Manuals/MAN_LANCEcAMP384KitUser.pdf].
Effectiveness of compounds was estimated by their ability to reduce the content of intracellular cAMP induced by serotonin.

5-HT6 receptor [2] = molecular target: T1, 5-HT6 receptor; experiment: Competitive radioligand binding ([3H] Lysergic acid diethylamide) to membranes of HeLa cells expressing 5-HT6 receptor; settings: 1.5 nM [3H] Lysergic acid diethylamide, HeLa cell membranes; for IC50: read-out: IC50 of serotonin 5-HT6 receptor inhibition in the setting of competitive binding; for Ki: read-out: Ki of serotonin 5-HT6 receptor inhibition in the setting of competitive binding
Protocol: Activity determination of serotonin 5-HT6 receptor antagonists of the general formula 1 in the setting of competitive binding to serotonin 5-HT6 receptors.
Screening of disclosed compounds for their potential ability to interact with serotonin 5-HT6 receptors was carried out by method of radioligand binding. For this purpose membrane species were prepared from HeLa cells expressing recombinant human 5-HT6 receptor by means of their homogenization in glass homogenizer with subsequent separation of plasmatic membranes from cell nucli, mitochondria's and cell wreckages by differential centrifugation. Determination of tested compounds binding with 5-HT6 receptors was carried out according to the method described in [Monsma F J Jr, Shen Y, Ward R P, Hamblin M W and Sibley D R, Cloning and expression of a novel serotonin receptor with high affinity for tricyclic psychotropic drugs. Mol. Pharmacol. 43:320-327, 1993]. In the preferred embodiment membrane preparations were incubated with radioligand (1.5 nM [^3H] Lysergic acid diethylamide) without and in the presence of investigated compounds for […] at 37° C. in medium consisting of […], pH 7.4, 150 mM NaCl, 2 mM Ascorbic Acid, 0.001% BSA. After incubation the samples were filtered in vacuo on glass-microfiber filters G/F (Millipor, USA), filters were washed three times with cold solution of medium and radioactivity was measured by scintillation counter MicroBeta 340 (PerkinElmer, USA). Nonspecific binding which made up 30% of overall binding was determined by incubation of membrane preparations with radioligand in the presence of 5 μM Serotonin (5-HT). Methiothepin was used as positive control. Binding of tested compounds with the receptor was determined by their ability to displace the radioligand and expressed in percent of displacement. The percent of displacement was calculated according to the following equation:
[formula] wherein: TA—was overall radioactivity in presence of radioligand only, CA—was radioactivity in presence of radioligand and tested compound and NA—was radioactivity in presence of radioligand and Serotonin (5 μM).

[3] = tested on: aged male mice of BALB/c line; experiment: Passive Avoidance of mice in the Shuttle Chamber, memory disturbed by Scopolamine; type: in vivo; settings: Scopolamine 0.3 mg/kg, 30 minutes before training
Protocol: A shuttle chamber (Ugo Basile, Italy) consisted of two sections was used. The walls of one section were opaque while the second section had transparent cover. The sections were connected through a hole which could be overlapped by vertical door. The floor was made of transverse metal bars on which DC current impulses could be fed. Experiments were carried out in aged male mice of BALB/c line weighing 20-24 grams. On the first day of experiment 30 minutes before training mice were injected […] with physiological solutions of Scopolamine (0.3 mg/kg) or Scopolamine in combination with active ingredient 1.2(3). Each group consisted of at least 8 animals. Animals were placed in light section, and latent period of the first entry into dark chamber was registered. Then vertical door was closed and the animal was punished by 0.6 mA DC current for 3 seconds. After that the animal was returned to its living cage. In 22-24 hours the same animal was placed again in light section of the shuttle chamber and the latent period of its first entry into the dark section, the total time of its stay in the light section and the number of entries into the dark section was registered. Each monitoring lasted for 5 minutes. The experiment was carried out during the day time in isolated laboratory using white noise at level of about 70 decibel above human hearing threshold. […]

mice [4] = experiment: Passive Avoidance of mice in the Shuttle Chamber, memory disturbed by MK-801; type: in vivo; settings: MK-801 0.1 mg/kg, 30 minutes before training
Protocol: A shuttle chamber (Ugo Basile, Italy) consisted of two sections was used. The walls of one section were opaque while the second section had transparent cover. The sections were connected through a hole which could be overlapped by vertical door. The floor was made of transverse metal bars on which DC current impulses could be fed. Experiments were carried out in aged male mice of BALB/c line weighing 20-24 grams.
On the first day of experiment 30 minutes before training mice were injected […] with physiological solutions of Scopolamine (0.3 mg/kg) or Scopolamine in combination with active ingredient 1.2(3). Each group consisted of at least 8 animals. Animals were placed in light section, and latent period of the first entry into dark chamber was registered. Then vertical door was closed and the animal was punished by 0.6 mA DC current for 3 seconds. After that the animal was returned to its living cage. In 22-24 hours the same animal was placed again in light section of the shuttle chamber and the latent period of its first entry into the dark section, the total time of its stay in the light section and the number of entries into the dark section was registered. Each monitoring lasted for 5 minutes.
The experiment was carried out as in example 7. […]

mice [5] = experiment: Mice Behavior in the Elevated Plus Maze; type: in vivo
Excerpt: Anxiolytic (tranquilizing) action of compounds of general formulas 1 and 2 in the test “Mice Behavior in the Elevated Plus Maze”. The length of each arm in the labyrinth is 30 cm, the width is 5 cm, and the height of walls is 15 cm. Two opposite arms are closed from sides and end faces by transparent walls, the other two arms are lit and opened. A mouse was placed in the center of maze and for the next five minutes the number of entries the opened and closed arms and the time spent in each type of arms was registered. […] The animals usually avoid the open arms (the preference index is between 0.2 and 0.3). Compounds with tranquilizing action increase this index up to 0.5-0.6 or even more and reduce the number of defecations without changing the overall motion activity of the mice (the total number of their entries to the arms).

T1 sequence (P50406 whole entry): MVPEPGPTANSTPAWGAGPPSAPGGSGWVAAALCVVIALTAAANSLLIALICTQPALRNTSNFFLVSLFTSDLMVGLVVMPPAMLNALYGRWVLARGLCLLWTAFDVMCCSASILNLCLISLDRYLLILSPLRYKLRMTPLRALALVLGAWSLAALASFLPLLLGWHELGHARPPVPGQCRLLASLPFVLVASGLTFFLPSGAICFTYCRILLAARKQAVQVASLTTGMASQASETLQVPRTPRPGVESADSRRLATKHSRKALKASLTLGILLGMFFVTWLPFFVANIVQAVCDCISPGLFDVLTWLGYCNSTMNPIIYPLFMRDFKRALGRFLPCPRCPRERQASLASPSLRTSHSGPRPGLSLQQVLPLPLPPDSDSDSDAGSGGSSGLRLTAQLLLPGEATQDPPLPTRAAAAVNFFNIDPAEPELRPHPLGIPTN

SMILES | IC50 (5-HT6 receptor [1]) [nM] | IC50 (5-HT6 receptor [2]) [nM] | Ki (5-HT6 receptor [2]) [nM] | Nootropic action (enhancement of memory disturbed by Scopolamine) [3] | Nootropic action (enhancement of memory disturbed by MK-801) (mice [4]) | Anxiolytic (tranquilizing) action (mice [5])
CSc1nn2c3c(cnc2c1S(=O)(=O)c1ccccc1)CCC3 [1.1(1), 2-methylsulfanyl-3-(phenylsulfonyl)-7,8-dihydro-6H-cyclopenta[e]pyrazolo[1,5-a]pyrimidine] | 27 | 0.986 | 0.458 | – | – | –
CSc1nn2c3c(cnc2c1S(=O)(=O)c1ccccc1)CCCC3 [1.2(1), 2-methylsulfanyl-3-(phenylsulfonyl)-6,7,8,9-tetrahydrocyclohexa[e]pyrazolo[1,5-a]pyrimidine] | 35 | 1.18 | 0.549 | – | – | –
CSc1nn2c3c(c(C)nc2c1S(=O)(=O)c1ccccc1)CCCC3 [1.2(3), 5-methyl-2-methylsulfanyl-3-(phenylsulfonyl)-6,7,8,9-tetrahydrocyclohexa[e]pyrazolo[1,5-a]pyrimidine] | 32 | 0.948 | 0.44 | confirm nootropic action | produce nootropic effect | exhibits an anxiolytic (tranquilizing) action which is comparable with the activity of Buspirone and Lorasepam
CSc1nn2cc3c(nc2c1S(=O)(=O)c1ccccc1)CCCC3 [2(1)] | 479 | 17.2 | 7.97 | – | – | –
CSc1nn2c(C)c3c(nc2c1S(=O)(=O)c1ccccc1)CCCC3 [2(2)] | 7.8 | 1.46 | 0.68 | – | – | –
